Experimental findings from paper PMC4491109, “Synthesis and anticonvulsant activity of new N-phenyl-2-(4-phenylpiperazin-1-yl)acetamide derivatives” (Medicinal Chemistry Research, 2015) are described below.

Experiment [1] deals with pentylenetetrazole-induced seizures. In words: Subcutaneous pentylenetetrazole (scPTZ) test, i.p. administration in mice. The note with it: Mus musculus, ip, doses of 30, 100 or 300 mg/kg. Type of experiment: in vivo. The method, then:
(§1) Considering the aforementioned facts, the profile of anticonvulsant activity of final compounds 3–24 was established in the MES and scPTZ tests, after intraperitoneal (i.p.) injection in mice at doses of 30, 100 and 300 mg/kg. An observation was carried out at two different time intervals—0.5 and 4 h. Furthermore, in addition to the primary anticonvulsant screening, the acute neurological toxicity (NT) was determined in mice by the rotarod test.
(§2) Compounds 3–24 were pharmacologically preevaluated within the Antiepileptic Drug Development (ADD) Program in Epilepsy Branch, Neurological Disorders Program, National Institute of the Neurological and Communicative Disorders and Stroke (NIH/NINDS), Rockville, MD, USA, by using procedures described elsewhere (Krall et al., [1978]; Kupferberg, [1989]).
(§3) Phase I of the in vivo studies involved three tests: MES, scPTZ and rotarod test for NT. Male albino mice (CF#1 strain, weighing 18–25 g) and male albino rats (Sprague–Dawley) were used as experimental animals. The animals were housed in metabolic cages and allowed free access to food and water. The compounds were injected intraperitoneally to mice as a suspension in 0.5 % methylcellulose/water mixture at a dose level 30, 100 or 300 mg/kg with anticonvulsant activity and neurotoxicity assessment at 0.5 and 4 h after administration. Promising derivatives from phase I underwent phase VIa in which they were administrated orally into rats at a fixed dose of 30 mg/kg for both MES and the rotarod toxicity determination at five pretreatment times: 0.25, 0.5, 1, 2, 4 h. Groups of eight mice or four rats are employed.
The scPTZ test utilizes a dose of pentylenetetrazole (85 mg/kg in mice) that produces clonic seizures lasting for a period of at least 5 s in 97 % (CD97) of animals tested. PTZ is administered 0.5 and 4 h after injections of tested compounds, and observation is carried out for 30 min. In the control groups, the first episode of clonic convulsions is observed between 6 and 15 min of observation. The absence of clonic convulsions in the observed time period of […] is interpreted as the compound’s ability to protect against PTZ-induced seizures.

Experiment [2] deals with maximal electroshock (MES) seizures. Kind of experiment: Maximal electroshock (MES) test, i.p. administration in mice. In kind it is in vivo. The following applies: Mus musculus, ip, doses of 30, 100 or 300 mg/kg. The procedure: as §1, §2, §3
In the MES screen, an electrical stimulus of 0.2 s in duration (50 mA in mice and 150 mA in rats) is delivered via corneal electrodes primed with an electrolyte solution containing an anesthetic agent. The endpoint is the tonic extension of the hind limbs. In the control groups, the procedures cause immediate hind limb tonic extension. Mice not displaying hind limb tonic extension are considered to be protected from seizures.
Background: Protection in the maximal electroshock model is a classic sign of anticonvulsant action.

Where [3] appears, read: 0.5 h, read-out: scPTZ, minimum dose effective in half or more animals tested, 0.5 h.
The mark [4] stands for this setting: 4 h, read-out: scPTZ, minimum dose effective in half or more animals tested, 4 h.
Where [5] appears, read: 0.5 h, read-out: MES, minimum dose effective in half or more animals tested, 0.5 h.
Setting [6] is: 4 h, read-out: MES, minimum dose effective in half or more animals tested, 4 h.

Where two headings read alike, the source gives them in different places.

In the case of `Cl.O=C(CN1CCN(c2ccccc2)CC1)Nc1cccc(Cl)c1` [Compound 3, N-(3-chlorophenyl)-2-(4-phenylpiperazin-1-yl)acetamide monohydrochloride], the minimal effective dose in experiment [1] (setting [3]), in experiment [1] (setting [4]), in experiment [2] (setting [5]) and in experiment [2] (setting [6]) was more than 300 mg/kg each time.
For `Cl.O=C(CN1CCN(c2ccccc2Cl)CC1)Nc1cccc(Cl)c1` [Compound 4, N-(3-chlorophenyl)-2-[4-(2-chlorophenyl)piperazin-1-yl]acetamide monohydrochloride], the minimal effective dose in experiment [1] (setting [3]), in experiment [1] (setting [4]), in experiment [2] (setting [5]) and in experiment [2] (setting [6]) was more than 300 mg/kg in each case.
For `Cl.O=C(CN1CCN(c2ccc(Cl)cc2)CC1)Nc1cccc(Cl)c1` [Compound 5, N-(3-chlorophenyl)-2-[4-(4-chlorophenyl)piperazin-1-yl]acetamide monohydrochloride], the minimal effective dose in experiment [1] (setting [3]), in experiment [1] (setting [4]), in experiment [2] (setting [5]) and in experiment [2] (setting [6]) was more than 300 mg/kg throughout.
Take `Cl.O=C(CN1CCN(c2cccc(Cl)c2Cl)CC1)Nc1cccc(Cl)c1` [Compound 6, N-(3-chlorophenyl)-2-[4-(2,3-dichlorophenyl)piperazin-1-yl]acetamide monohydrochloride]: the minimal effective dose in experiment [1] (setting [3]), in experiment [1] (setting [4]), in experiment [2] (setting [5]) and in experiment [2] (setting [6]) was more than 300 mg/kg each time.
With `Cl.O=C(CN1CCN(c2ccccc2F)CC1)Nc1cccc(Cl)c1` [Compound 7, N-(3-chlorophenyl)-2-[4-(2-fluorophenyl)piperazin-1-yl]acetamide monohydrochloride], the minimal effective dose in experiment [1] (setting [3]), in experiment [1] (setting [4]), in experiment [2] (setting [5]) and in experiment [2] (setting [6]) was more than 300 mg/kg in each case.
For `Cl.O=C(CN1CCN(c2ccc(F)cc2)CC1)Nc1cccc(Cl)c1` [Compound 8, N-(3-chlorophenyl)-2-[4-(4-fluorophenyl)piperazin-1-yl]acetamide monohydrochloride], the minimal effective dose in experiment [1] (setting [3]), in experiment [1] (setting [4]), in experiment [2] (setting [5]) and in experiment [2] (setting [6]) was more than 300 mg/kg in each case.
For `Cl.O=C(CN1CCN(c2cccc(C(F)(F)F)c2)CC1)Nc1cccc(Cl)c1` [Compound 9, N-(3-chlorophenyl)-2-[4-[3-(trifluoromethyl)phenyl]piperazin-1-yl]acetamide monohydrochloride], the minimal effective dose in experiment [1] (setting [3]), in experiment [1] (setting [4]), in experiment [2] (setting [5]) and in experiment [2] (setting [6]) was more than 300 mg/kg throughout.
`Cl.O=C(CN1CCN(c2ncccn2)CC1)Nc1cccc(Cl)c1` [Compound 10, N-(3-chlorophenyl)-2-(4-pyrimidin-2-ylpiperazin-1-yl)acetamide monohydrochloride]: the minimal effective dose in experiment [1] (setting [3]), in experiment [1] (setting [4]), in experiment [2] (setting [5]) and in experiment [2] (setting [6]) was more than 300 mg/kg in each case.
Regarding `Cl.O=C(CN1CCN(c2ccccc2Cl)CC1)Nc1cccc(C(F)(F)F)c1` [Compound 15, 2-[4-(2-Chlorophenyl)piperazin-1-yl]-N-[3-(trifluoromethyl)phenyl]acetamide monohydrochloride], the minimal effective dose in experiment [1] (setting [3]), in experiment [1] (setting [4]), in experiment [2] (setting [5]) and in experiment [2] (setting [6]) was more than 300 mg/kg each time.
Consider `O=C(CN1CCN(c2ccc(Cl)cc2)CC1)Nc1cccc(C(F)(F)F)c1` [Compound 16, 2-[4-(4-Chlorophenyl)piperazin-1-yl]-N-[3-(trifluoromethyl)phenyl]acetamide], for which the minimal effective dose is more than 300 mg/kg in experiment [1] (setting [3]), more than 300 mg/kg in experiment [1] (setting [4]), more than 300 mg/kg in experiment [2] (setting [5]) and 100 mg/kg in experiment [2] (setting [6]).
